Legend:
[1] = target: T1, L-malic acid carrier in S. pombe (Schizosaccharomyces pombe, UniProt P50537); settings: Sousa et al. (1992); cited from earlier work
T1 construct: host or cells: S. pombe cells (per the assay title)
T1 sequence (P50537 1-438): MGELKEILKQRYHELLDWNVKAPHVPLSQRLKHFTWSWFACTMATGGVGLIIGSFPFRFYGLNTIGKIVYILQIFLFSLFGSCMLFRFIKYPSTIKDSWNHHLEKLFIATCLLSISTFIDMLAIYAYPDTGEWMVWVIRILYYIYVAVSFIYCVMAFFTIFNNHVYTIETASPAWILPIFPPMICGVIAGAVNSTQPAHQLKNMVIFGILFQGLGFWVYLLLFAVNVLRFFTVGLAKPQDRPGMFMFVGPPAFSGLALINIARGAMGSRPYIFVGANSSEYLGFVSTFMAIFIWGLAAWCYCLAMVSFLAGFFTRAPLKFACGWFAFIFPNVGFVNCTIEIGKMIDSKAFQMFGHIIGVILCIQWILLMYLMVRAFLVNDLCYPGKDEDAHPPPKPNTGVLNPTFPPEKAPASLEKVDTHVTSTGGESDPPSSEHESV

S. pombe Mae1 permease = target: T2, S. pombe Mae1 permease (Schizosaccharomyces pombe, UniProt P50537); experiment: Transport assays for 14C-labelled L-malic, succinic, malonic and α-ketoglutaric acids in S. pombe wild-type, mae1- mutant and complemented mutant; format: cell-based; settings: 14C-labelled acid, 0.1 M KCl pH 3.5, 30° C.
T2 construct: endogenous in cells; host or cells: S. pombe 972 leu1-32 h- (wild type); also the mae1- mutant complemented with the 3.4 kb SmaI genomic mae1 fragment in pRS315
T2 sequence (P50537 1-438): T1 sequence (P50537 1-438)
Experimental: Yeast cells in the logarithmic growth phase (OD of 1.2 at A595) were harvested and washed three times with 0.1 M KCI (pH 3.5). The cells were resuspended in 4 ml 0.1 M KCI (pH 3.5) and stored at 4° C. Transport assays were completed within 3 h. The cell suspensions were pre-incubated for 5 min in a shaker water bath at 30° C. at 100 rpm. Assays were initiated by adding 25 μl of ^14C-labelled L malate (45 μCi/μmol) (Amersham), 100 μl of succinic acid (42 μCi/μmol) (ICN), 100 μl malonic add (56.7 μCi/μmol) (Du Pont) or 100 μl a-ketoglutarate (51.8 μCi/μmol) (Du Pont). A 0.5-ml sample was withdrawn at 10, 20, 40, 60, and 120 sec intervals, rapidly filtered through 0.45 μm membranes (Mllipore Corporation, Bedford, Mass.), and immediately washed three times with 5 ml amounts of ice-cold 0.1 M KCI (pH 3.5). Filters containing the cells were oven-dried at 50° C. and placed in scintillation vials containing 5 ml of scintillation reaction mixture (Boehringer Mannheim, Mannheim, Germany). Pre-boiled (5 min) cells were used to determine non-specific binding of [^14C] malate, succinate, malonate and α-ketoglutarate to the yeast cells.

Row | Structure (SMILES) | inhibition of initial uptake rates of L-malic acid [1] | transport in the mae1-mutant complemented with the 3.4kb Sma1 fragment containing the mae1 gene (S. pombe Mae1 permease)
1 | O=C(O)C[C@@H](O)C(=O)O [D-malic acid] | competitive inhibition | –
2 | O=C(O)C[C@H](O)C(=O)O [L-malic acid] | – | fully restored
3 | O=C(O)/C=C/C(=O)O [fumaric acid] | competitive inhibition | –
4 | O=C(O)/C=C\C(=O)O [maleic acid] | competitive inhibition | –
5 | O=C(O)CC(=O)O [malonic acid] | competitive inhibition | fully restored
6 | O=C(O)CC(=O)C(=O)O [oxaloacetic acid] | competitive inhibition | –
7 | O=C(O)CCC(=O)O [succinic acid] | competitive inhibition | fully restored

From US20020081684A1, “Method and nucleotide sequence for transforming microorganisms” (priority 1995, published 2002)
